Read-outs that look alike come from different tables or passages of the source. No end group written: not given here.

For series [1], the target named is T1, pure CETP separated from human blood plasma (Homo sapiens, UniProt P11597).
T1 construct: Pure CETP was separated from human blood plasma in accordance with the method of Hesler et al; from tissue; host or cells: human blood plasma
T1 sequence (P11597 18-493): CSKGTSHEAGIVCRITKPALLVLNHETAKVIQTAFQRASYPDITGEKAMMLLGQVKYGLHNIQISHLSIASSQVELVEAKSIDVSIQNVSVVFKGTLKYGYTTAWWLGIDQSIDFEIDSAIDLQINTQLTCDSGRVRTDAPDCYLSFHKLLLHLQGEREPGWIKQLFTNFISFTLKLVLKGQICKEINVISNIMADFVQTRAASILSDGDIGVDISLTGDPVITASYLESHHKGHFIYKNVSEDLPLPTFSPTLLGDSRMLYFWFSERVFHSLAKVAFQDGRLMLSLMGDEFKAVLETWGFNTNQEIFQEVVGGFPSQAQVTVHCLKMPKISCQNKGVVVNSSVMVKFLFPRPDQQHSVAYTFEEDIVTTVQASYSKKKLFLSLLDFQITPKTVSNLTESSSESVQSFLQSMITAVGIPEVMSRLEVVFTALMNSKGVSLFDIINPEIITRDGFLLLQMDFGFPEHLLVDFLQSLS
The experiment in a line: Determination of CETP inhibitory activity (CE transfer from [3H]-HDL to LDL), pure CETP as CETP source. It is filed as biochemical. Conditions: for inhibition at 7 µM: final conc. 7 μM; for inhibition at 9 µM: final conc. 9 μM. The procedure:
(§1) LDL and [^3 H]-cholesteryl oleate-labelled HDL were synthesized in accordance with the method of Morton et al.(see, J. Biol. Chem., 256, 11992-11995(1981)) and then separated using an ultracentrifuge(Beckman XL 70). LDL and [^3 H]-HDL, thus prepared, were used as a CE-receptor and a CE-donor, respectively.
(§2) Pure CETP was separated from human blood plasma in accordance with the method of Hesler et al.(see, J. Biol. Chem., 262, 2275-2282(1987)) and used as a CETP source.
(§3) 0.3 ml of LDL, 0.05 ml of [^3 H]-HDL and 0.05 ml of the CETP source, which were prepared above, and 0.05 ml of a CETP inhibitor were added into a 1.5 ml tube and reacted at 37° C. for 3 hours.
(§4) When the reaction was finished, LDL was precipitated in accordance with the method of Morton et al.(see, Biochim. Biophys. Acta, 663, 350-355(1981)). The amount of the isotope transferred to LDL was determined with a liquid scintillation counter(Packard Tricarb 1600 TR) using a part of the supernatant, and the activity of CETP was calculated therefrom.
(§5) The inhibitory activity of the CETP inhibitor was calculated from the CETP activities of the experimental group, in which the CETP inhibitor was added, and that of control group, in which no CETP inhibitor was added, as follows: [formula]

The target in series [2] is T2, CETP (human blood plasma as CETP source) (Homo sapiens, UniProt P11597).
T2 construct: human blood plasma itself was used as the CETP source; from tissue; host or cells: human blood plasma (used as such)
T2 sequence (P11597 18-493): T1 sequence (P11597 18-493)
The experiment in a line: Determination of CETP inhibitory activity, human blood plasma itself as CETP source. It is filed as biochemical. The procedure: as §1, §3, §4, §5
Further, the same procedures as in the Reference Example, except that human blood plasma itself was used as the CETP source, were repeated to determine CETP inhibitory activity of pure 3 kDa peptide.
CETP inhibitory activities of peptides P28, P10, P18, P24, P20 and P14 were determined in accordance with the method of Reference Example 1 using pure CETP or human blood plasma as a CETP source. To exclude possible nonspecific inhibition, a 2 kDa soluble peptide having an optional amino acid sequence was synthesized, and CETP inhibitory activity thereof was determined in a similar manner(control group).

For series [3], the system named is Human fibroblast cell line(A431, ATCC CRL 1555). The experiment in a line: Toxicity test on cultured cells. It is filed as cell-based. As to conditions: 10% (wt/vol) peptide, 72 hours, DMEM with 10% FBS, compared with control without peptide. The procedure: Human fibroblast cell line(A431, ATCC CRL 1555) was cultured on DMEM medium containing 10% fetal bovine serum(FBS), with the addition of 10% (wt/vol) Peptide P28, P18, P10, P24, P20 or P14, for 72 hours.

For a further series, the target named is T3, CETP (Homo sapiens, UniProt P11597).
T3 construct: Pure CETP was separated from human blood plasma in accordance with the method of Hesler et al; from tissue; host or cells: human blood plasma
T3 sequence (P11597 18-493): T1 sequence (P11597 18-493)
The experiment in a line: CETP inhibitory activity of Peptide P28 according to the substrate (CE-receptor VLDL, LDL, HDL or LDLR). It is filed as biochemical. Conditions: final concentration 2 μM. The procedure:
as §1, §2, §3, §4, §5
In order to identify the inhibitory mechanism of Peptide P28 in blood, CETP inhibitory activity of Peptide P28 was determined in accordance with the method of Reference Example 1, using VLDL, LDL, HDL or re-synthesized LDL(LDLR) as a CE-receptor. LDLR was synthesized from LDL obtained in Reference Example 1 by the method of Morton et al.(see, J. Biol. Chem., 256, 11992-11995(1981)). The LDL was delipidated with chloroform and subjected to a gel chromatography to obtain ApoB100 protein. Phosphatidylcholine and cholesteryl oleate was thoroughly mixed, dried using nitrogen gas, and ApoB100 protein obtained above was added thereto. The mixture was reacted with stirring, dialyzed against tris buffer, and subjected to a gel chromatography to obtain LDLR.

Setting [4] is: alanine variants of P10, CETP source not given.
[5] abbreviates: final conc. of peptide 2 μM, CETP source human plasma, P28' and P13 produced in E. coli, read-out: Inhibitory Activity.
[6] abbreviates: final conc. of peptide 2 μM, CETP source pure CETP, synthesized peptides.
Where [7] appears, read: conc. of inhibitor 2 μM, CETP source human plasma, peptides expressed in E. coli, read-out: Inhibitory Activity (Mean ± SD).

Take EDTSPEDAMQ [Variant H]: the inhibition at 5 µM in series [1] (final conc. 5 μM, alanine variants of P10, CETP source not given) stood at 5%.

Consider EATSPEDKMQ [Variant B], for which, in series [1] (setting [4]), the inhibition at 7 µM is -15%.

With EDASPEDKMQ [Variant C], the inhibition at 8 µM in series [1] (final conc. 8 μM, alanine variants of P10, CETP source not given) is -6%.

Regarding EDTSPEDKMA [Variant J], the inhibition at 7 µM in series [1] (setting [4]) was 41%.

As to SEAEDASLLSFMQ [Peptide P13], the inhibition at 2 µM in series [2] (setting [5]) was found to be 34 ± 2.9%.

On to EDTSPEAKMQ [Variant G], for which, in series [1] (final conc. 2 μM, alanine variants of P10, CETP source not given, read-out: CETP inhibitory activity), the inhibition at 2 µM was -3%.

For the sequence EDTSPEDKMQDYVKQATRTAQDAL [Peptide P24], the “change in growth condition and morphology of cultured cells” value in series [3] is listed as “no change”. In addition, in series [1] (setting [6]), the “Inhibitory Activity (Mean ± S.D.)” value was determined as 100 ± 2.5%. Also, the inhibition at 2 µM in series [2] (setting [7]) is 50 ± 0.8%.

Turning to EDTSPEDKAQ [Variant I], the inhibition at 9 µM in series [1] (setting [4]) was determined as 69%.

Take EDTAPEDKMQ [Variant D]: the inhibition at 7 µM in series [1] (setting [4]) is -12%.

Consider EDTSLLDKMQDYVKQATR [Peptide P18], for which the “change in growth condition and morphology of cultured cells” value in series [3] is “no change”. Also, the “Inhibitory Activity (Mean ± S.D.)” value is on record as 90 ± 3.5% in series [1] (setting [6]) and 40 ± 5.5% in series [2] (final conc. of peptide 2 μM, CETP source human plasma, synthesized peptides).

As to EDTSAEDKMQ [Variant E], the inhibition at 9 µM in series [1] (setting [4]) is -6%.

Take EDTSPEDKMQDYVK [Peptide P14]: the “change in growth condition and morphology of cultured cells” value in series [3] is reported as “no change”. The “Inhibitory Activity (Mean ± S.D.)” value in series [1] (setting [6]) came to 50 ± 3.5%. Besides, in series [2] (setting [7]), the inhibition at 2 µM was 15 ± 1.5%.

For EDTSPADKMQ [Variant F], in series [1] (final conc. 6 μM, alanine variants of P10, CETP source not given), the inhibition at 6 µM amounted to 29%.

As to “EDTSPEDKMQDYVKQATRTAQDALTSVK [Peptide P28]”, the inhibition at 2 µM on CETP (CE-receptor LDL, read-out: inhibition of the transfer of CE from HDL to LDL) was 50%; on CETP (CE-receptor VLDL, read-out: inhibition of the transfer of CE from HDL to VLDL), around 10%; on CETP (CE-receptor re-synthesized LDL (LDLR), read-out: inhibition of the transfer of CE from HDL to LDLR) it was 55%. For the same sequence, the inhibition at 0.001 µM in series [1] (1 nM, pure CETP separated from human blood plasma, read-out: CETP inhibitory activity (FIG. 4, curve A)) was around 100%; in series [2] (1 nM, human blood plasma itself as CETP source, read-out: CETP inhibitory activity (FIG. 4, curve B)) it was around 50%.

On to EDTSPEDKMQ [Peptide P10], for which the “change in growth condition and morphology of cultured cells” value in series [3] was “no change”. The inhibition at 2 µM in series [1] (final conc. of peptide 2 μM, CETP source pure CETP, synthesized peptides, read-out: Inhibitory Activity (Mean ± S.D.)) worked out at 100 ± 2%; in series [2] (setting [5]) it was 45 ± 2.3%; in series [2] (final conc. of peptide 2 μM, CETP source human plasma, synthesized peptides, read-out: Inhibitory Activity (Mean ± S.D.)) it was 50 ± 4.5%.

For ADTSPEDKMQ [Variant A], the inhibition at 7 µM in series [1] (setting [4]) is -12%.

Take EDTSPEDKMQDYVKQATRTA [Peptide P20]: the “change in growth condition and morphology of cultured cells” value in series [3] was “no change”. Also, the “Inhibitory Activity (Mean ± S.D.)” value in series [1] (setting [6]) worked out at 90 ± 1.5%. The inhibition at 2 µM in series [2] (setting [7]) was found to be 45 ± 2.2%.

The values above are taken from patent US5880095A, “Cholesteryl ester transfer protein inhibitor peptides and prophylactic and therapeutic anti-arteriosclerosis agents” (LG Chemical Ltd., priority 1994, dated 1999).
